Values joined by “and” are separate entries in the source; they are usually repeats but may differ in a detail not shown here. Equal values may be shown once.
What was measured:
Format in all cases: physicochemical
[1] = Fluorescence photobleaching; settings: continuous irradiation for 600 seconds
Experimental: The fluorescence emission data was collected at 80 points per second for 10 minutes. The excitation and emission slit widths were each set at 5 nm. At least three measurements were performed and averaged for accuracy.

[2] = Fluorescence photostability
Experimental: Fluorescence photostability: Fluorescence emission spectra were measured at different time points (1 day, 7 days and 14 days). The excitation and emission slit widths were each set at 5 nm. Three measurements were performed and averaged for accuracy.

[3] = Fluorescent decay measurement (lifetime); settings: MeOH; for Lifetime (τ): at maximal excitation and emission
Experimental: Fluorescent decay measurement (lifetime): 600 μL sample solution was pipetted into a 1.0 cm path-length quartz cuvette, and the spectrum was collected using a FluoroMax-4 Spectrofluorometer (Horiba Jobin Yvon, Kyoto, Japan) equipped with a NanoLED laser excitation source at ambient temperature. The wavelength was set as the maximum excitation and emission of the samples, and a LUDOX sample (silica beads, 2 μm) was used as the prompt. The lifetime was determined by fitting the fluorescent decay data from the DAS6 Analysis software (Horiba Jobin Yvon, Kyoto, Japan). Three measurements were performed and averaged for accuracy.

[4] = Fluorescence characterization (excitation/emission) of self-assemblies; settings: for Emission (λEm): maximal emission; for Emission (λEm) / Excitation (λEx) / fluorescent emission: MeOH; for Excitation (λEx): maximal excitation; for fluorescent emission: excited at 370 nm
Experimental: UV-Visible fluorescence characterization: 600 μL sample solution was pipetted into a 1.0 cm path-length quartz cuvette, and the spectrum was collected using a FluoroMax-4 Spectrofluorometer (Horiba Jobin Yvon, Kyoto, Japan) at ambient temperature. For molecular fluorescence of some experiments, the emission wavelength was set at 350 nm with a slit of 3 nm, and the excitation wavelength was set at 200-330 nm with a slit of 3 nm. For self-assembly fluorescence, the excitation wavelength was set at 370 nm with a slit of 3 nm, and the emission wavelength was set at 380-700 nm with a slit of 3 nm. For excitation-dependent maximal emission evolution experiment, the excitation wavelengths were set at 300-450 nm with a slit of 3 nm, and the emission wavelengths were set at 380-600 nm with a slit of 3 nm. According to the samples, anhydrous MeOH or MeOH solution of ZnCl2 (CuCl2) was used as background and subtracted. At least five measurements were performed and averaged for accuracy. Emission and excitation wavelengths, slit dimensions and background solutions were adjusted per the measured sample and are as indicated below. […]
(§1) Fluorescence spectroscopy and quantum yield (QY) measurement: 600 μL sample solution was pipetted into a 1.0 cm path-length quartz cuvette, and the spectrum was collected using a FluoroMax-4 Spectrofluorometer (Horiba Jobin Yvon, Kyoto, Japan) at ambient temperature. The excitation and emission wavelengths were set at 300-500 nm and 400-650 nm, respectively, with a slit of 2 nm. Absolute fluorescence QY measurements were performed using Quanta-Phi integrating sphere connected to Fluoromex-4.

[5] = Morphology and size of self-assemblies (AFM, DLS, TEM); settings: self-assemblies in MeOH
Experimental: Dynamic light scattering (DLS): 850 μL of the sample solution was introduced into a DTS1070 folded capillary cell (Malvern, Worcestershire, U.K.), and the size was measured using a Zetasizer Nano ZS analyzer (Malvern Instruments, Malvern, UK) at 25.0° C. and a backscatter detector (173°). Three measurements were performed and averaged for accuracy.
Atomic force microscopy (AFM): 4 μL of sample solution was dropped onto a freshly cleaved mica surface and let it dry. The mica was then rinsed with water and purged dried gently with nitrogen. A topographic image was recorded under a NanoWizard 3 BioScience AFM (JPK, Berlin, Germany) in the tapping mode at ambient temperature, with 512×512 pixel resolution and a scanning speed of 1.0 Hz.
Transmission electron microscopy (TEM): A carbon-coated copper grid was placed on a 10 μL cyclo-dipeptide droplet for 1 minute and then blotted. Next, the washed grid was placed on a 10 μL droplet containing 4% (w/v) uranyl acetate solution for 1 min and then blotted. Samples were examined using Tecnai G2 Spirit TEM (FEI) at 80 kV.
Atomic force microscopy (AFM): 5 μL of sample solution was dropped onto a freshly cleaved mica surface and dried by N2 purge (99.99%). The mica was then rinsed with water and gently purge dried with nitrogen. A topographic image was recorded under a Dimension icon AFM (Bruker) in the tapping mode at ambient temperature, with a 512×512-pixel resolution and a scanning speed of 1.0 Hz. Nanoscope Analysis software was used for data collection and analysis.
For cyclo-dipeptide-Zn structures, aliquots (10 μL) of cyclo-dipeptide-Zn were added into a glow discharge copper grid (400 mesh) coated with a thin carbon film for 2 minutes. Excess solution was then removed, and the grid was washed three times with deionized water. TEM images were viewed using a FEI Tecnai F20 electron microscope operating at 80 kV.

[6] = Quantum yield (QY) measurement; settings: MeOH; excitation set at 350 nm if maximal excitation less than 350 nm
Experimental: Quantum yield (QY) measurement: 5 mL sample solution was pipetted into a 1.0 cm path-length quartz cuvette with a tube (Hellma, Müllheim, Germany), and the absolute quantum yield was measured on an absolute PL quantum yield spectrometer C11347 (Hamamatsu Photonics, Shizuoka, Japan) at ambient temperature. The relevant blanks, namely anhydrous MeOH, MeOH solutions of ZnCl2 (CuCl2), or DMSO solution of ZnCl2, were used as background and subtracted. At least five measurements were performed and averaged for accuracy.
as §1

[7] = emission band 380 (strong), excitation 320 nm
[8] = emission band 465 (weak), excitation 370 nm
[9] = emission band 425, excitation 340 nm
[10] = emission band 520, excitation 420 nm

Molecule	Structures [5]	Lifetime (τ) [3] [ns]	Emission (λEm) [4]	Excitation (λEx) [4] [nm]	further results
cyanine 5.5 [Cy5.5]					photoluminescence after continuous irradiation (photobleaching) [1]: significant fluorescence decay; fluorescence lost (photostability) ([2]; after 1 week): 20%
tyrosine-tryptophan cyclic dipeptide [cyclo-WY]	nanofibers	0.232 ± 0.004	400 nm	320	
histidine-tyrosine cyclic dipeptide [cyclo-HY]	nanofibers	0.003 ± 0.034	390 nm	310	
CC1(C)C(/C=C/C=C/C=C/C=C2\N(CCCCS(=O)(=O)O)c3ccc4ccccc4c3C2(C)C)=[N+](CCCCS(=O)(=O)[O-])c2ccc3ccccc3c21 [ICG, indocyanine green]					photoluminescence after continuous irradiation (photobleaching) [1]: significant fluorescence decay; fluorescence after exposure to natural light (photostability) ([2]; after 1 day): lost all fluorescence
phenylalanine-tyrosine cyclic dipeptide [cyclo-FY]	nanofibers	0.022 ± 0.003	430 nm	350	QY [6]: 3%
cyclo-dityrosine [cyclo-YY]	platelets		no detectable emissions		emission ([4]; DMSO, Ex 450 nm (cyclo-FF), Ex 480 nm (cyclo-YY)): 570 nm
cyclo-dihistidine [cyclo-HH]	nanofibers				Lifetime (τ) [3, 9]: 4.89 ± 0.02 ns; Lifetime (τ) [3, 10]: 6.48 ± 0.04 ns; fluorescent emission [4]: 430 nm; Emission (λEm) [4, 9]: 425 nm; Emission (λEm) [4, 10]: 520 nm; Excitation (λEx) [4, 9]: 340 nm; Excitation (λEx) [4, 10]: 420 nm; QY [6]: 3%

More lines, main results first:

Structures [5]	Molecule	Lifetime (τ) [3] [ns]	Emission (λEm) [4]	Excitation (λEx) [4] [nm]	further results
nanofibers	tryptophan-histidine cyclic dipeptide [cyclo-WH]				Emission (λEm) [4, 7]: 380 (strong) nm; Emission (λEm) [4, 8]: 465 (weak) nm; Excitation (λEx) [4, 7]: 320 nm; Excitation (λEx) [4, 8]: 370 nm
nanospheres	tryptophan-tryptophan cyclic dipeptide [cyclo-WW]	5.45 ± 0.03		370	fluorescence lifetime ([3]; excitation 370 nm): 5.6 ns; fluorescent emission [4]: 425 nm and 520 nm; Emission (λEm) ([4]; emission band 440 (strong), excitation 370 nm): 440 (strong) nm
nanofibers	phenylalanine-histidine cyclic dipeptide [cyclo-HF]	3.29 ± 0.03	410 nm	340	
